# Measured values as given in patent US20200246317A1, “METHODS OF TREATING DIABETIC NEUROPATHY WITH A THIAZOLINE ANTI-HYPERALGESIC AGENT” (CERSCI THERAPEUTICS, INC., priority 2019, published 2020).
# Where a name gives a salt, the structure may show the parent alone.
# Biological target: T1, OATP1B3 (Homo sapiens, UniProt Q9NPD5)
# T1 construct: expressed in transfected cells; host or cells: HEK293 cells
# T1 sequence (Q9NPD5 1-702): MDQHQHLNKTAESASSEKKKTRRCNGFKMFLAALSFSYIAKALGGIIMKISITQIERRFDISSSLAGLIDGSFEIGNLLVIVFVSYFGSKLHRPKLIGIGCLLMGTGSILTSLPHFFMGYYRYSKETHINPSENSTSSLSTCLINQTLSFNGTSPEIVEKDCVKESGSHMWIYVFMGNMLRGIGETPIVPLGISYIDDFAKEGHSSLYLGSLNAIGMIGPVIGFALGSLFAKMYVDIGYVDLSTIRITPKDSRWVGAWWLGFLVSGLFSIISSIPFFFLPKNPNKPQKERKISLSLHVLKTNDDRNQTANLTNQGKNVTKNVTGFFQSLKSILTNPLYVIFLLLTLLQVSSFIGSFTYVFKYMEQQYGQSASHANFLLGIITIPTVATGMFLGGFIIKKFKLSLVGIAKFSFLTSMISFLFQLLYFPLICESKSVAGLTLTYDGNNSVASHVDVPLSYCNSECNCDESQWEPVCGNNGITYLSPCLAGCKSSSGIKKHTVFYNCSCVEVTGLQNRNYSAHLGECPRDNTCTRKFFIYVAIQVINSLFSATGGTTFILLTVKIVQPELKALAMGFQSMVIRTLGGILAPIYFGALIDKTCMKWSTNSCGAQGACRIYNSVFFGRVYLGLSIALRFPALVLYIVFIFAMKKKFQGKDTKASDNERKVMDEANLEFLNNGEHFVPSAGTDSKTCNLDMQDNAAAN
# Assay: Inhibition of transporters, OATP1B3 (HEK293 cells)
# Format: in vitro ADME
smiles,measurement,value
"CC1(C)SC(Nc2ccccc2O)=N[C@@H]1C(=O)O [Compound 1, (R)-2-(2-hydroxyphenylamino)-5,5-dimethyl-4,5-dihydrothiazole-4-carboxylic acid mono-hydrochloride]",inhibition of OATP1B3 (in words),does not inhibit
